Assay results reported in patent US11717553B2, “Combined plant extract for getting rid of mites and acne and preparation method and use thereof” (Nanjing Institute for Comprehensive Utilization of Wild …, priority 2020, dated 2023).
Like-named read-outs stand apart in the source and are kept apart here.

Columns and labels:
[1] = test system: human follicle mites; assay: In vitro experiment of mite elimination by combined plant extracts and single plant extracts (Example 4); conditions: 4 h
Source text: (§1) Mites for experiments: follicle mites were obtained with a transparent tape sticking overnight. Specifically, subjects were required to clean their face thoroughly and stick a transparent tape which is 6 cm long and 1.5 cm wide to their foreheads, cheeks, noses, chins or other sites before going to bed. The tape was peeled off the next day, stuck on a glass slide and observed under a microscope.
Preparation of samples to be tested: a total of 7 samples of combined plant extracts and single plant extracts prepared according to Examples 1-3 and Comparative Examples 1-4, were sequentially denoted as samples no. 1-7 to be tested, and diluted with deionized water to a 25% concentration for later use.
1.2.1 Test groups: the test solutions were denoted as no. 1-7 sequentially, a 2% metronidazole solution was used as the positive control group, and liquid paraffin was used as the blank control group. 10 follicle mites were included in each group. […]
(§2) 1.2.2 Observation method: a micropipette was used to draw 200 μL of an agent solution and drop it on a slide. […] The tapes where follicle mites were detected were stuck on the slides to allow sufficient contact of the solution and the mites. […]
(§3) 1.2.3 Determination of death: the mites whose limbs or feet were immobile under a 400× microscope for 1 min were initially determined to be dead, and those who still immobile after 30 min were diagnosed as dead. […]

[2] = test system: human follicle mites; conditions: 4 h
Source text: as §1
Preparation of samples to be tested: The combined plant extract prepared according to Example 1 was diluted with deionized water to obtain final concentrations of 100%, 50%, 25%, 12.5%, 6.25%, and 3.125% for later use.
1.2.1 Test groups: the combined plant extract to be tested was divided into 6 concentration gradient groups, a 2% metronidazole solution was used as the positive control group, and liquid paraffin was used as the blank control group. 10 follicle mites were included in each group. […]
as §2, §3

Cc1ncc([N+](=O)[O-])n1CCO [Metronidazole, metronidazole] was tested, and the “Corrected mortality rate (%) ± SE” value [1] was 56.73 ± 4.07% and the “Corrected mortality rate (%) ± SE” value [2] was 54.66 ± 4.38%.
